Structures can show the parent of a compound that is named as a salt. Where two headings read alike, the source gives them in different places.
Biological target: SARS-CoV-2 3CLpro (Severe acute respiratory syndrome coronavirus 2, UniProt P0DTD1)
Test: biochemical
Type: biochemical
Design: Replicate_1 / Replicate_2 / mean / mean (LOPAC_screen_w_protease): unit not given here
Conditions: for inhibition at 5 µM: 4 h
[1] = sheet LOPAC_screen_w_protease, primary screen with protease, 5 µM, mean of two replicates
[2] = sheet LOPAC_screen_w_protease, primary screen with protease, 5 µM, replicate 1
[3] = sheet LOPAC_screen_w_protease, primary screen with protease, 5 µM, replicate 2
[4] = LOPAC1280 primary screen with protease, 5 µM compound, mean of the two replicates
[5] = LOPAC1280 primary screen with protease, 5 µM compound, replicate 1
[6] = LOPAC1280 primary screen with protease, 5 µM compound, replicate 2
[7] = sheet LOPAC_screen_w_protease, LOPAC1280 primary screen with protease, 5 µM compound, mean of the two replicates, read-out: mean
[8] = sheet LOPAC_screen_w_protease, LOPAC1280 primary screen with protease, 5 µM compound, replicate 1, read-out: Replicate_1
[9] = sheet LOPAC_screen_w_protease, LOPAC1280 primary screen with protease, 5 µM compound, replicate 2, read-out: Replicate_2
[10] = sheet LOPAC_screen_w_protease, LOPAC1280 at 5 µM, mean of two replicates, read-out: mean
[11] = sheet LOPAC_screen_w_protease, LOPAC1280 at 5 µM, replicate 1, read-out: Replicate_1
[12] = sheet LOPAC_screen_w_protease, LOPAC1280 at 5 µM, replicate 2, read-out: Replicate_2
[13] = sheet LOPAC_screen_w_protease, primary screen at 5 µM, mean of two replicates, read-out: mean (LOPAC screen with protease)
[14] = sheet LOPAC_screen_w_protease, primary screen at 5 µM, replicate 1, read-out: Replicate_1 (LOPAC screen with protease)
[15] = sheet LOPAC_screen_w_protease, primary screen at 5 µM, replicate 2, read-out: Replicate_2 (LOPAC screen with protease)
[16] = sheet LOPAC_screen_w_protease, LOPAC1280 primary screen with protease, 5 µM compound, mean of the two replicates
[17] = sheet LOPAC_screen_w_protease, LOPAC1280 primary screen with protease, 5 µM compound, replicate 1
[18] = sheet LOPAC_screen_w_protease, LOPAC1280 primary screen with protease, 5 µM compound, replicate 2
[19] = sheet LOPAC_screen_w_protease, primary screen with protease, compound at 5 µM, mean of two replicates, read-out: mean
[20] = sheet LOPAC_screen_w_protease, primary screen with protease, compound at 5 µM, replicate 1, read-out: Replicate_1
[21] = sheet LOPAC_screen_w_protease, primary screen with protease, compound at 5 µM, replicate 2, read-out: Replicate_2
[22] = sheet LOPAC_screen_w_protease, primary screen with protease, compound at 5 µM, mean of two replicates
[23] = sheet LOPAC_screen_w_protease, primary screen with protease, compound at 5 µM, replicate 1
[24] = sheet LOPAC_screen_w_protease, primary screen with protease, compound at 5 µM, replicate 2
[25] = sheet LOPAC_screen_w_protease, LOPAC1280 at 5 µM, mean of two replicates
[26] = sheet LOPAC_screen_w_protease, LOPAC1280 at 5 µM, replicate 1
[27] = sheet LOPAC_screen_w_protease, LOPAC1280 at 5 µM, replicate 2
[28] = LOPAC1280 primary screen with protease, 5 µM compound, replicate 1, read-out: Replicate_1 (LOPAC_screen_w_protease)
[29] = LOPAC1280 primary screen with protease, 5 µM compound, replicate 2, read-out: Replicate_2 (LOPAC_screen_w_protease)
[30] = sheet LOPAC_screen_w_protease, primary screen with protease, mean of two replicates
[31] = sheet LOPAC_screen_w_protease, primary screen with protease, replicate 1
[32] = sheet LOPAC_screen_w_protease, primary screen with protease, replicate 2
[33] = read-out: Replicate_1 (LOPAC_screen_w_protease)
[34] = read-out: Replicate_2 (LOPAC_screen_w_protease)

In the case of `Br.CCCN(CCC)[C@@H]1CCc2cccc(O)c2C1` [R-(+)-8-Hydroxy-DPAT hydrobromide], the mean [1] is reported as -0.6201, the Replicate_1 [2] is reported as 2.2019 and the Replicate_2 [3] is reported as -3.442.
In the case of `CN(C(=O)Cc1ccc(Cl)c(Cl)c1)C(CN1CCCC1)c1cccc(OCC(=O)O)c1.Cl` (centres unmarked) [ICI 204,448 hydrochloride], the “mean (LOPAC_screen_w_protease)” value [4] is reported as 1.925, the “Replicate_1 (LOPAC_screen_w_protease)” value [5] is reported as 3.897 and the “Replicate_2 (LOPAC_screen_w_protease)” value [6] is reported as -0.04714.
With `NC(=O)C(=O)O` [Sodium Oxamate] the inhibition at 5 µM [7] was 4.58%, the inhibition at 5 µM [8] was 4.67% and the inhibition at 5 µM [9] was 4.48%.
`Cc1cc(N)c2ccccc2[n+]1CCCCCCCCCC[n+]1c(C)cc(N)c2ccccc21` [Dequalinium dichloride] showed an inhibition at 5 µM (read-out: Replicate_1) of 2.94%, an inhibition at 5 µM (read-out: Replicate_2) of 1.41% and an inhibition at 5 µM (read-out: mean) of 2.17%.
For `NCCc1c[nH]c2ccc(C(N)=O)cc12.O=C(O)/C=C\C(=O)O` [5-Carboxamidotryptamine maleate], the “mean (LOPAC_screen_w_protease)” value [4] was 1.776, the “Replicate_1 (LOPAC_screen_w_protease)” value [5] was 2.928 and the “Replicate_2 (LOPAC_screen_w_protease)” value [6] was 0.6229.
With `Cc1nccc2c1[nH]c1ccccc12` [Harmane] the inhibition at 5 µM [10] was 1.1%, the inhibition at 5 µM [11] was 2.71% and the inhibition at 5 µM [12] was -0.5%.
`NCCSSCCN` [Cystamine dihydrochloride] gave an inhibition at 5 µM [13] of 14.4%, an inhibition at 5 µM [14] of 14.2% and an inhibition at 5 µM [15] of 14.5%.
S-Nitroso-N-acetylpenicillamine gave a mean [16] of 5.369, a Replicate_1 [17] of 5.411 and a Replicate_2 [18] of 5.326.
`CN(C)CC/C=C1/c2ccccc2Sc2ccc(Cl)cc21` [Chlorprothixene hydrochloride] gave an inhibition at 5 µM [10] of 1.25%, an inhibition at 5 µM [11] of 0.326% and an inhibition at 5 µM [12] of 2.17%.
`Nc1c[n+](N2CCOCC2)no1.[Cl-]` [3-Morpholinosydnonimine hydrochloride] was tested, and the “mean (LOPAC screen with protease)” value (sheet LOPAC_screen_w_protease, primary screen at 5 µM, mean of two replicates) was 21.789, the “Replicate_1 (LOPAC screen with protease)” value (sheet LOPAC_screen_w_protease, primary screen at 5 µM, replicate 1) was 21.9907 and the “Replicate_2 (LOPAC screen with protease)” value (sheet LOPAC_screen_w_protease, primary screen at 5 µM, replicate 2) was 21.5874.
Work on `N#CC(C#N)=Cc1ccc(O)c(O)c1` [Tyrphostin 23] yielded an inhibition at 5 µM [19] of 3.07%, an inhibition at 5 µM [20] of 2.09% and an inhibition at 5 µM [21] of 4.04%.
For `CCCn1c(=O)c2c(ncn2C)n(CCC)c1=O` [1,3-Dipropyl-7-methylxanthine], the mean [22] was 3.018, the Replicate_1 [23] was 3.463 and the Replicate_2 [24] was 2.572.
Compound `CC(=O)OC(C)C[N+](C)(C)C.[Cl-]` (stereo not drawn) [Acetyl-beta-methylcholine chloride] has a mean [1] of 0.2718, a Replicate_1 [2] of 1.198 and a Replicate_2 [3] of -0.6541.
In the case of `CC[N+](CC)(CC)CCOc1cccc(OCC[N+](CC)(CC)CC)c1OCC[N+](CC)(CC)CC` [Gallamine triethiodide], the inhibition at 5 µM [13] is reported as 11.3%, the inhibition at 5 µM [14] is reported as 12.1% and the inhibition at 5 µM [15] is reported as 10.6%.
`CCOC(=O)[N-]c1cn(N2CCOCC2)n[o+]1` [Molsidomine] showed an inhibition at 5 µM [19] of 2.83%, an inhibition at 5 µM [20] of 1.44% and an inhibition at 5 µM [21] of 4.23%.
For `Cc1nc(-c2ccc(-c3ccc(C(=O)N4CCc5cc6c(cc54)C4(CCN(C)CC4)CO6)cc3)c(C)c2)no1.Cl` [SB 224289 hydrochloride], the mean [25] was 1.002, the Replicate_1 [26] was 2.397 and the Replicate_2 [27] was -0.3926.
`CCCCCCCCCC(=O)NC(CN1CCOCC1)[C@H](O)c1ccccc1.Cl` (mixture of isomers) showed a mean (sheet LOPAC_screen_w_protease, LOPAC1280 primary screen at 5 µM, with protease, mean of the two replicates) of 0.5952, a Replicate_1 (sheet LOPAC_screen_w_protease, LOPAC1280 primary screen at 5 µM, with protease, replicate 1) of 1.232 and a Replicate_2 (sheet LOPAC_screen_w_protease, LOPAC1280 primary screen at 5 µM, with protease, replicate 2) of -0.042.
In the case of `O=C(O)C1=CCNCC1` [Isoguvacine hydrochloride], the inhibition at 5 µM [28] is reported as 2.64%, the inhibition at 5 µM [29] is reported as 1.29% and the “mean (LOPAC_screen_w_protease)” value [4] is reported as 1.964.
`N[C@H]1CON=C1O` [L-Cycloserine] gave an inhibition at 5 µM [19] of 3.14%, an inhibition at 5 µM [20] of 0.423% and an inhibition at 5 µM [21] of 5.86%.
For `O=C(O)C1CCNCC1` [Isonipecotic acid], the inhibition at 5 µM [28] was 4.55%, the inhibition at 5 µM [29] was -0.611% and the “mean (LOPAC_screen_w_protease)” value [4] was 1.97.
`CC(CN1c2ccccc2Sc2ccccc21)N(C)C` (centres unmarked) [Promethazine hydrochloride] gave an inhibition at 5 µM (sheet LOPAC_screen_w_protease, primary screen of LOPAC1280 at 5 µM with protease, mean of the two replicates, read-out: mean) of 3.55%, an inhibition at 5 µM (sheet LOPAC_screen_w_protease, primary screen of LOPAC1280 at 5 µM with protease, replicate 1, read-out: Replicate_1) of 1.74% and an inhibition at 5 µM (sheet LOPAC_screen_w_protease, primary screen of LOPAC1280 at 5 µM with protease, replicate 2, read-out: Replicate_2) of 5.35%.
`C[N+](C)(C)CCCCCCCCCC[N+](C)(C)C.[Br-].[Br-]` [Decamethonium dibromide] gave a mean [25] of 1.23, a Replicate_1 [26] of 2.965 and a Replicate_2 [27] of -0.5048.
For trans-(±)-ACPD, the “Replicate_1 (LOPAC_screen_w_protease)” value [5] was 2.281 and the “Replicate_2 (LOPAC_screen_w_protease)” value [6] was 1.598.
`CCCN1C[C@H](CSC)C[C@@H]2c3cccc4[nH]cc(c34)C[C@H]21` [Pergolide methanesulfonate] was tested, and the inhibition at 5 µM (sheet LOPAC_screen_w_protease, primary screen with protease, 5 µM, mean of two replicates, read-out: mean) was 0.241%, the inhibition at 5 µM (sheet LOPAC_screen_w_protease, primary screen with protease, 5 µM, replicate 1, read-out: Replicate_1) was 0.0285% and the inhibition at 5 µM (sheet LOPAC_screen_w_protease, primary screen with protease, 5 µM, replicate 2, read-out: Replicate_2) was 0.454%.
In the case of `CCC(=O)N1CCN(C(=O)c2ccccc2)CC1` [DM 235], the “mean (LOPAC_screen_w_protease)” value (LOPAC1280 primary screen with protease, 5 µM compound, mean of two replicates) is reported as 1.365, the “Replicate_1 (LOPAC_screen_w_protease)” value [5] is reported as 0.6823 and the “Replicate_2 (LOPAC_screen_w_protease)” value [6] is reported as 2.048.
With `Cl.Clc1ccc(Cn2c(CN3CCCC3)nc3ccccc32)cc1` [Clemizole hydrochloride] the mean [22] was 3.083, the Replicate_1 [23] was 2.873 and the Replicate_2 [24] was 3.2929.
Work on `CCCCc1oc2ccccc2c1C(=O)c1cc(I)c(OCCN(CC)CC)c(I)c1` [Amiodarone hydrochloride] yielded an inhibition at 5 µM (read-out: Replicate_1) of 2.09%, an inhibition at 5 µM (read-out: Replicate_2) of 4.04% and an inhibition at 5 µM (read-out: mean) of 3.06%.
`COc1cc(NS(C)(=O)=O)ccc1Nc1c2ccccc2nc2ccccc12` [Amsacrine hydrochloride] was tested, and the inhibition at 5 µM [7] was 4.23%, the inhibition at 5 µM [8] was 4.22% and the inhibition at 5 µM [9] was 4.24%.
In the case of `COC(=O)N1CCN(C(=O)Cc2ccc(Cl)c(Cl)c2)C(CN2CCCC2)C1.O=C(O)/C=C/C(=O)O` (centres unmarked) [GR-89696 fumarate], the mean [30] is reported as 2.523, the Replicate_1 [31] is reported as 2.9956 and the Replicate_2 [32] is reported as 2.05.
Work on `Cc1[nH]c2ccc(O)cc2c1CCN.O=C(O)/C=C\C(=O)O` [2-Methyl-5-hydroxytryptamine maleate] yielded a mean [16] of 5.124, a Replicate_1 [17] of 4.629 and a Replicate_2 [18] of 5.62.
`CNCCc1c[nH]c2ccc(O)cc12.O=C(O)C(=O)O` was tested, and the mean [16] was 5.527, the Replicate_1 [17] was 5.7 and the Replicate_2 [18] was 5.354.
With `NCCCCN` [Putrescine dihydrochloride] the “mean (LOPAC_screen_w_protease)” value was 2.055, the inhibition at 5 µM [33] was 4.37% and the inhibition at 5 µM [34] was -0.258%.
`CC1CCN=C(N)S1.Cl` (racemic) [(±)-AMT hydrochloride] gave a Replicate_1 of 3.477, a Replicate_2 of 0.9466 and a mean of 2.212.
With `COc1cc2nc(N3CCN(C(=O)C4COc5ccccc5O4)CC3)nc(N)c2cc1OC` (centres unmarked) [Doxazosin mesylate] the inhibition at 5 µM [28] was 3.96%, the inhibition at 5 µM [29] was -0.00681% and the “mean (LOPAC_screen_w_protease)” value [4] was 1.977.
Compound `S=C=Nc1ccc2oc(C3=NCCN3)cc2c1` [BU99006] has a Replicate_1 of 4.032, a Replicate_2 of 1.831 and a mean of 2.931.
With `CC(/C=C/c1cccc(Oc2ccc(F)cc2)c1)N(O)C(N)=O` (centres unmarked) [BWB70C] the mean [30] was 2.212, the Replicate_1 [31] was 2.534 and the Replicate_2 [32] was 1.889.
With `CCN1C[C@]2(C)CC[C@H](O)[C@]34C1[C@@H](C[C@H]23)[C@@]1(O)C[C@H](OC)[C@H]2C[C@@H]4[C@@H]1[C@H]2O` [Karakoline] the “mean (LOPAC_screen_w_protease)” value was 1.99, the inhibition at 5 µM [33] was 1.52% and the inhibition at 5 µM [34] was 2.46%.
